Reference: ChEMBL document CHEMBL1201862, “PubChem BioAssay data set” (2004)
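Test compounds were applied to cells in 96-well plates for 48 hours at 5 doses. GI50: concentration for 50% inhibition of growth.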 Active and inactive are the calls of the source. Rule as the data show it: active = GI50 up to about 1.1 µM and inactive = higher.

Experiments:
Test in all cases: NCI tumour cell line growth inhibition, 48 h
EKVX = system: EKVX
HCC 2998 = system: HCC 2998
HOP-92 = system: HOP-92
OVCAR-3 = system: OVCAR-3
UACC-257 = system: UACC-257
OVCAR-5 = system: OVCAR-5
K562 = system: K562
NCI-H226 = system: NCI-H226
NCI-H522 = system: NCI-H522
SK-MEL-28 = system: SK-MEL-28
HT-29 = system: HT-29
OVCAR-4 = system: OVCAR-4
SF-268 = system: SF-268
U-251 = system: U-251
ACHN = system: ACHN
Malme-3M = system: Malme-3M
SNB-19 = system: SNB-19
XF498 = system: XF498
UO-31 = system: UO-31
KM12 = system: KM12
A498 = system: A498
TK-10 = system: TK-10
M19-MEL = system: M19-MEL
SNB-78 = system: SNB-78
A549 = system: A549
RXF 393 = system: RXF 393
HCT-116 = system: HCT-116
DMS-273 = system: DMS-273
MOLT-4 = system: MOLT-4
DLD-1 = system: DLD-1
HOP-18 = system: HOP-18
COLO 205 = system: COLO 205
NCI-H23 = system: NCI-H23
SF-539 = system: SF-539
HCT-15 = system: HCT-15
SNB-75 = system: SNB-75
786-0 = system: 786-0
HOP-62 = system: HOP-62
LOX IMVI = system: LOX IMVI
IGROV-1 = system: IGROV-1
SN12C = system: SN12C
RXF 631 = system: RXF 631
DMS-114 = system: DMS-114
RPMI-8226 = system: RPMI-8226
SF-295 = system: SF-295
M14 = system: M14
OVCAR-8 = system: OVCAR-8
NCI-H460 = system: NCI-H460
SK-MEL-2 = system: SK-MEL-2
SW-620 = system: SW-620
CAKI-1 = system: CAKI-1
KM-20L2 = system: KM-20L2
CCRF-CEM = system: CCRF-CEM
SK-OV-3 = system: SK-OV-3
UACC-62 = system: UACC-62
HL-60 = system: HL-60
SK-MEL-5 = system: SK-MEL-5
LXFL 529 = system: LXFL 529
SR = system: SR

## O=c1ncc(F)cn1C1OC(CO)C(O)C1O (centres undefined)
EKVX
  GI50: > 100 µM (inactive)
HCC 2998
  GI50: 16.9 µM (inactive)
HOP-92
  GI50: 23.8 µM (inactive)
OVCAR-3
  GI50: > 26.7 µM (inactive)
UACC-257
  GI50: 14.1 µM (inactive)
OVCAR-5
  GI50: > 52 µM (inactive)
K562
  GI50: 7.38 µM (inactive)
NCI-H226
  GI50: > 19.1 µM (inactive)
NCI-H522
  GI50: > 32.7 µM (inactive)
SK-MEL-28
  GI50: > 45.6 µM (inactive)
HT-29
  GI50: > 30.7 µM (inactive)
OVCAR-4
  GI50: > 80.5 µM (inactive)
SF-268
  GI50: > 23.9 µM (inactive)
U-251
  GI50: > 14.9 µM (inactive)
ACHN
  GI50: > 44 µM (inactive)
Malme-3M
  GI50: > 29.8 µM (inactive)
SNB-19
  GI50: > 18.3 µM (inactive)
XF498
  GI50: > 100 µM (inactive)
UO-31
  GI50: > 100 µM (inactive)
KM12
  GI50: > 30.5 µM (inactive)
A498
  GI50: > 44.2 µM (inactive)
TK-10
  GI50: > 69.2 µM (inactive)
M19-MEL
  GI50: > 24.6 µM (inactive)
SNB-78
  GI50: > 29.7 µM (inactive)
A549
  GI50: > 36.6 µM (inactive)
RXF 393
  GI50: > 100 µM (inactive)
HCT-116
  GI50: 24.4 µM (inactive)
DMS-273
  GI50: 16.7 µM (inactive)
MOLT-4
  GI50: > 20.7 µM (inactive)
DLD-1
  GI50: > 35.8 µM (inactive)
HOP-18
  GI50: > 31.5 µM (inactive)
COLO 205
  GI50: > 24.6 µM (inactive)
NCI-H23
  GI50: > 100 µM (inactive)
SF-539
  GI50: > 34.9 µM (inactive)
HCT-15
  GI50: > 100 µM
SNB-75
  GI50: 6.24 µM (inactive)
786-0
  GI50: > 36.4 µM (inactive)
HOP-62
  GI50: > 30.7 µM (inactive)
LOX IMVI
  GI50: 16.7 µM (inactive)
IGROV-1
  GI50: > 30.8 µM (inactive)
SN12C
  GI50: > 17.4 µM (inactive)
RXF 631
  GI50: 41.6 µM (inactive)
DMS-114
  GI50: > 21.2 µM (inactive)
RPMI-8226
  GI50: 15.1 µM (inactive)
SF-295
  GI50: > 29.7 µM (inactive)
M14
  GI50: > 52 µM (inactive)
OVCAR-8
  GI50: > 27.7 µM (inactive)
NCI-H460
  GI50: 23.6 µM (inactive)
SK-MEL-2
  GI50: > 28.3 µM (inactive)
SW-620
  GI50: > 31.4 µM (inactive)
CAKI-1
  GI50: 15.5 µM (inactive)
KM-20L2
  GI50: > 32.9 µM (inactive)
CCRF-CEM
  GI50: 14.7 µM (inactive)
SK-OV-3
  GI50: > 42.6 µM (inactive)
UACC-62
  GI50: > 37.6 µM (inactive)
HL-60
  GI50: 19.3 µM (inactive)

## O=C(O)CCSC(=O)Nc1ccc(/N=N/c2ccccc2)cc1
EKVX
  GI50: 74 µM (inactive)
HCC 2998
  GI50: > 100 µM (inactive)
HOP-92
  GI50: > 100 µM (inactive)
OVCAR-3
  GI50: > 100 µM (inactive)
UACC-257
  GI50: > 100 µM (inactive)
OVCAR-5
  GI50: > 100 µM (inactive)
K562
  GI50: 80.5 µM (inactive)
NCI-H226
  GI50: > 100 µM (inactive)
SK-MEL-28
  GI50: > 100 µM (inactive)
HT-29
  GI50: > 100 µM (inactive)
OVCAR-4
  GI50: 95.1 µM (inactive)
SF-268
  GI50: > 100 µM (inactive)
U-251
  GI50: 64.6 µM (inactive)
ACHN
  GI50: 43.6 µM (inactive)
Malme-3M
  GI50: > 100 µM (inactive)
SK-MEL-5
  GI50: > 100 µM (inactive)
LXFL 529
  GI50: 61.1 µM (inactive)
SNB-19
  GI50: > 100 µM (inactive)
XF498
  GI50: > 100 µM (inactive)
UO-31
  GI50: 55.3 µM (inactive)
KM12
  GI50: > 100 µM (inactive)
A498
  GI50: 69.5 µM (inactive)
TK-10
  GI50: > 100 µM (inactive)
SNB-78
  GI50: > 100 µM (inactive)
A549
  GI50: > 100 µM (inactive)
RXF 393
  GI50: > 100 µM (inactive)
HCT-116
  GI50: > 100 µM (inactive)
DMS-273
  GI50: > 100 µM (inactive)
MOLT-4
  GI50: 30.2 µM (inactive)
DLD-1
  GI50: > 100 µM (inactive)
HOP-18
  GI50: > 100 µM (inactive)
COLO 205
  GI50: > 100 µM (inactive)
NCI-H23
  GI50: > 100 µM (inactive)
SF-539
  GI50: > 100 µM (inactive)
HCT-15
  GI50: > 100 µM
SNB-75
  GI50: > 100 µM (inactive)
786-0
  GI50: > 100 µM (inactive)
HOP-62
  GI50: > 100 µM (inactive)
LOX IMVI
  GI50: > 100 µM (inactive)
IGROV-1
  GI50: 92.9 µM (inactive)
SN12C
  GI50: > 100 µM (inactive)
SR
  GI50: 37.9 µM (inactive)
RXF 631
  GI50: > 100 µM (inactive)
DMS-114
  GI50: 61.8 µM (inactive)
RPMI-8226
  GI50: > 100 µM (inactive)
SF-295
  GI50: 64 µM (inactive)
M14
  GI50: > 100 µM (inactive)
OVCAR-8
  GI50: 61.1 µM (inactive)
NCI-H460
  GI50: > 100 µM (inactive)
SW-620
  GI50: > 100 µM (inactive)
CAKI-1
  GI50: > 100 µM (inactive)
KM-20L2
  GI50: > 100 µM (inactive)
CCRF-CEM
  GI50: 62.5 µM (inactive)
SK-OV-3
  GI50: > 100 µM (inactive)
UACC-62
  GI50: 59.4 µM (inactive)
HL-60
  GI50: 36.5 µM (inactive)

## CN1CCN(C)C12C=CC=CC21CC1
EKVX
  GI50: > 100 µM (inactive)
HCC 2998
  GI50: > 100 µM (inactive)
HOP-92
  GI50: 58.9 µM (inactive)
OVCAR-3
  GI50: > 100 µM (inactive)
UACC-257
  GI50: > 100 µM (inactive)
OVCAR-5
  GI50: > 100 µM (inactive)
K562
  GI50: > 100 µM (inactive)
NCI-H226
  GI50: > 100 µM (inactive)
NCI-H522
  GI50: > 100 µM (inactive)
HT-29
  GI50: > 100 µM (inactive)
OVCAR-4
  GI50: > 100 µM (inactive)
SF-268
  GI50: > 100 µM (inactive)
U-251
  GI50: > 100 µM (inactive)
ACHN
  GI50: > 100 µM (inactive)
Malme-3M
  GI50: > 100 µM (inactive)
SK-MEL-5
  GI50: > 100 µM (inactive)
SNB-19
  GI50: > 100 µM (inactive)
XF498
  GI50: > 100 µM (inactive)
UO-31
  GI50: > 100 µM (inactive)
KM12
  GI50: > 100 µM (inactive)
A498
  GI50: > 100 µM (inactive)
TK-10
  GI50: > 100 µM (inactive)
M19-MEL
  GI50: > 100 µM (inactive)
SNB-78
  GI50: > 100 µM (inactive)
A549
  GI50: > 100 µM (inactive)
RXF 393
  GI50: > 100 µM (inactive)
HCT-116
  GI50: > 100 µM (inactive)
DMS-273
  GI50: > 100 µM (inactive)
MOLT-4
  GI50: > 100 µM (inactive)
DLD-1
  GI50: > 100 µM (inactive)
HOP-18
  GI50: > 100 µM (inactive)
COLO 205
  GI50: > 100 µM (inactive)
NCI-H23
  GI50: > 100 µM (inactive)
SF-539
  GI50: > 100 µM (inactive)
HCT-15
  GI50: > 100 µM
SNB-75
  GI50: > 100 µM (inactive)
786-0
  GI50: > 100 µM (inactive)
HOP-62
  GI50: > 100 µM (inactive)
LOX IMVI
  GI50: > 100 µM (inactive)
IGROV-1
  GI50: > 100 µM (inactive)
SN12C
  GI50: > 100 µM (inactive)
SR
  GI50: > 100 µM (inactive)
RXF 631
  GI50: > 100 µM (inactive)
DMS-114
  GI50: > 100 µM (inactive)
RPMI-8226
  GI50: > 100 µM (inactive)
SF-295
  GI50: > 100 µM (inactive)
M14
  GI50: > 100 µM (inactive)
OVCAR-8
  GI50: > 100 µM (inactive)
NCI-H460
  GI50: > 100 µM (inactive)
SK-MEL-2
  GI50: > 100 µM (inactive)
SW-620
  GI50: > 100 µM (inactive)
CAKI-1
  GI50: > 100 µM (inactive)
KM-20L2
  GI50: > 100 µM (inactive)
CCRF-CEM
  GI50: > 100 µM (inactive)
SK-OV-3
  GI50: > 100 µM (inactive)
UACC-62
  GI50: > 100 µM (inactive)
HL-60
  GI50: > 100 µM (inactive)
